IC50 data for 23 compounds are collected here from patent US20260200919A1, “SUBSTITUTED AMINOPYRIDINE COMPOUNDS AND METHODS OF TREATING DISEASE USING SAME” (Atavistik Bio, Inc., priority 2023, published 2026).

The target in test [1] is T1, human recombinant kinase full-length AKT1 E17K (Homo sapiens, UniProt P31749, E17K).
T1 construct: Purified human recombinant kinase full-length AKT1 E17K was expressed in insect cells; made in house; host or cells: insect cells
The test is described as follows: AKT1 E17K kinase assay (TR-FRET, Lance). Type of test: biochemical. The conditions noted are these: 0.6 nM AKT1 E17K, 50 nM Ulight-CREBtide, either 50 μM ATP or 2 mM ATP (not specified which), 60 min at RT. The protocol: AKT1 E17K kinase assay: Inhibitory effects of compounds on AKT1 E17K were undertaken in a 10-pt dose response kinase activity assay measuring phospho-peptide product formation based on TR-FRET signal as described in the following paragraph.
(§1) Purified human recombinant kinase full-length AKT1 E17K was expressed in insect cells and activated in vitro by PDPK1. Ulight™-CREBtide (PerkinElmer, catalog number TRF0107) was used as the peptide substrate. The reaction buffer consisted of 50 mM HEPES pH 7.5, 10 mM MgCl2, 0.01% Triton X-100, 0.01% BSA, 2 mM DTT, 0.6 nM AKT1 E17K, 50 nM. Ulight™ CREBtide and either 50 μM ATP or 2 mM ATP. The compound solution was prepared as 10 mM DMSO stock. […] Final DMSO concentration in the assay was 1%. […] The reaction was stopped after 60 min of incubation at RT by the addition of 10 μL of Detection Mix (PerkinElmer, #CR97-100) consisting of Europium-anti-phospho-CREB (Ser133) (Perkin Elmer, catalog numberTRF0200). Incubation with the detection mix for a further 60 min allowed binding of antibody to the phospho-Ulight™ CREBtide. The fluorescence emissions at 620 nm and 665 nm after excitation at […] was measured using Envision reader. The ratio of the emissions at 665 nm and at 620 nm provided the measure for the amount of phosphorylated CREBtide product of AKT1 E17K kinase activity.
A general note: Time-resolved FRET reads energy transfer from a long-lived donor to a nearby acceptor.

The target of test [2] is T2, human recombinant kinase full-length wildtype AKT1 (Homo sapiens, UniProt P31749).
T2 construct: Purified human recombinant kinase full-length wildtype AKT1 was expressed in insect cells; made in house; host or cells: insect cells
The test is described as follows: AKT1 kinase assay (wildtype, TR-FRET, Lance). The class given is biochemical. Conditions: 0.6 nM wildtype AKT1, 50 nM Ulight-CREBtide, either 50 μM ATP or 2 mM ATP (not specified which), 60 min at RT. The method, then: AKT1 kinase assay: Inhibitory effects of compounds on wildtype AKT1 were undertaken in a 10-pt dose response kinase activity assay measuring phospho-peptide product formation based on TR-FRET signal as described in the following paragraph.
as §1, with “full-length wildtype” for “full-length”, “AKT1” for “AKT1 E17K”, “Ulight™—CREBtide” for “Ulight™-CREBtide”, “AKT1,” for “AKT1 E17K,”, “nM Ulight™-CREBtide” for “nM. Ulight™ CREBtide”

T1 sequence (P31749 whole entry E17K): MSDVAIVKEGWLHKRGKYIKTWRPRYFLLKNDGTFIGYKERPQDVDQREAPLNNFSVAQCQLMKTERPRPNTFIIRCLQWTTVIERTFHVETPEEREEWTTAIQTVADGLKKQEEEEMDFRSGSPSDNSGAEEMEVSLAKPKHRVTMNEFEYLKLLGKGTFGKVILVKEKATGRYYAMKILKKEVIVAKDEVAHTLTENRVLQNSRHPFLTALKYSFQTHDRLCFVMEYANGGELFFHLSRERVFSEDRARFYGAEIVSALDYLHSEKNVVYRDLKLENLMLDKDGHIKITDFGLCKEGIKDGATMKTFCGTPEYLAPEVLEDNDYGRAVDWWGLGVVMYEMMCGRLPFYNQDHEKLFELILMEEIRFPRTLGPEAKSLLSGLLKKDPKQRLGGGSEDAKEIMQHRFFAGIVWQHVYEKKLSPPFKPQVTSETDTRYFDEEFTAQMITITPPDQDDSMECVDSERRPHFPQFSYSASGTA
T2 sequence (P31749 whole entry): as the sequence (P31749 whole entry E17K) above, with K17E counted along it

In the case of `Cc1cc(C(=O)O)ccc1NC(=O)c1ccc(-n2c(-c3cccnc3N)nc3ccc(-c4ccccc4)nc32)cn1` [Compound 178, 4-(5-(2-(2-aminopyridin-3-yl)-5-phenyl-3H-imidazo[4,5-b]pyridin-3-yl)picolinamido)-3-methylbenzoic acid], the IC50 in test [1] was over 0.5 µM; in test [2] it was under 0.5 µM.

Turning to `Cc1nc(NC(=O)c2ccc(C(=O)O)cc2)ccc1-n1c(-c2cccnc2N)nc2ccc(-c3ccccc3)nc21` [Compound 153], the IC50 in test [1] is under 0.05 µM; in test [2], under 0.5 µM.

`C[C@@H](c1ccc(C(=O)O)cc1F)N1CC(c2ccc(-n3c(-c4cccnc4N)nc4ccc(-c5ccccc5)nc43)cc2)C1` [Compound 159]: the IC50 in test [1] is 0.2 to 0.5 µM; in test [2], under 0.5 µM.

For the compound `C[C@H](c1ccc(C(=O)O)cc1)N1CC(c2ccc(-n3c(-c4cccnc4N)nc4ccc(-c5ccccc5)nc43)cc2)C1` (single isomer, unassigned) [Compound 125], the values for the IC50 in test [1] and in test [2] were 0.05 to 0.2 µM and under 0.5 µM, respectively.

As to `Nc1ncccc1-c1nc2ccc(C(F)(F)F)cc2n1-c1ccc(CNC(=O)c2cccc(C(=O)O)c2F)cc1` [Compound 106, 3-((4-(2-(2-aminopyridin-3-yl)-6-(trifluoromethyl)-1H-benzo[d]imidazol-1-yl)benzyl)carbamoyl)-2-fluorobenzoic acid], the IC50 in test [1] and in test [2] was over 0.5 µM each time.

Consider `Nc1ncccc1-c1nc2ccc(-c3ccccc3)nc2n1-c1ccc(NC(=O)c2cccc(CC(=O)O)c2)nc1` [Compound 64, 2-(3-((5-(2-(2-aminopyridin-3-yl)-5-phenyl-3H-imidazo[4,5-b]pyridin-3-yl)pyridin-2-yl)carbamoyl)phenyl) acetic acid], for which the IC50 is under 0.05 µM in test [1] and under 0.5 µM in test [2].

`Nc1ncccc1-c1nc2ccc(-c3ccccc3)nc2n1-c1ccc(CNC(=O)c2cccc(CCC(=O)O)c2)cc1` [Compound 42, 3-(3-((4-(2-(2-aminopyridin-3-yl)-5-phenyl-3H-imidazo[4,5-b]pyridin-3-yl)benzyl)carbamoyl)phenyl) propanoic acid]: the IC50 is 0.05 to 0.2 µM in test [1] and under 0.5 µM in test [2].

For the compound `Cc1nc(NC(=O)c2ccc(C(=O)O)cc2)ccc1-n1c(-c2cccnc2N)nc2ccc(-c3ccccc3)cc21` [Compound 182, 4-((5-(2-(2-aminopyridin-3-yl)-6-phenyl-1H-benzo[d]imidazol-1-yl)-6-methylpyridin-2-yl)carbamoyl)benzoic acid], the IC50 in test [1] was over 0.5 µM; in test [2], under 0.5 µM.

Regarding `COC(=O)c1ccccc1C(=O)N1CC(c2ccc(-n3c(-c4cccnc4N)nc4ccc(-c5ccccc5)nc43)cc2)C1` [Compound 73, methyl 2-(3-(4-(2-(2-aminopyridin-3-yl)-5-phenyl-3H-imidazo[4,5-b]pyridin-3-yl)phenyl)azetidine-1-carbonyl)benzoate], the IC50 is over 0.5 µM in test [1] and under 0.5 µM in test [2].

In the case of `CC(=O)Nc1ccc(-c2ccc3nc(-c4cccnc4N)n(-c4ccc(CNC(=O)c5cccc(CC(=O)O)c5)cc4)c3n2)cc1` [Compound 80, 2-(3-((4-(5-(4-acetamidophenyl)-2-(2-aminopyridin-3-yl)-3H-imidazo[4,5-b]pyridin-3-yl)benzyl)carbamoyl)phenyl) acetic acid], the values for the IC50 in test [1] and in test [2] were 0.2 to 0.5 µM and under 0.5 µM, respectively.

Take `CC(c1ccc(C(=O)O)c(F)c1)N1CC(c2ccc(-n3c(-c4cccnc4N)nc4ccc(-c5ccccc5)nc43)cc2)C1` (stereo not shown) [Compound 163]: the IC50 in test [1] was 0.05 to 0.2 µM; in test [2], under 0.5 µM.

Turning to `CC(C)c1ccc2nc(-c3cccnc3N)n(-c3ccc(C4CN(Cc5ccc(C(=O)O)cc5)C4)cc3)c2n1` [Compound 173, 4-((3-(4-(2-(2-aminopyridin-3-yl)-5-isopropyl-3H-imidazo[4,5-b]pyridin-3-yl)phenyl)azetidin-1-yl)methyl)benzoic acid], the IC50 was over 0.5 µM in test [1] and under 0.5 µM in test [2].

Take `NC(=O)c1cnc2c(c1)nc(-c1cccnc1N)n2-c1ccc(CNC(=O)c2cccc(CC(=O)O)c2)cc1` [Compound 97, 2-[3-[[4-[2-(2-amino-3-pyridyl)-6-carbamoyl-imidazo[4,5-b]pyridin-3-yl]phenyl]methylcarbamoyl]phenyl]acetic acid]: the IC50 in test [1] and in test [2] was over 0.5 µM each time.

In the case of `CC(c1ccc(C(=O)O)cc1)N1CC(c2ccc(-n3c(-c4cccnc4N)nc4ccc(-c5ccccc5)nc43)cc2F)C1` (stereo not shown) [Compound 166, 4-(1-(3-(4-(2-(2-aminopyridin-3-yl)-5-phenyl-3H-imidazo[4,5-b]pyridin-3-yl)-2-fluorophenyl)azetidin-1-yl)ethyl)benzoic acid], the IC50 was 0.2 to 0.5 µM in test [1] and under 0.5 µM in test [2].

On to `Nc1ncccc1-c1nc2ccc(-c3ccccc3)nc2n1-c1ccc(C2CN(C(=O)c3ccc(C(=O)O)cc3)C2)cc1` [Compound 70, 4-(3-(4-(2-(2-aminopyridin-3-yl)-5-phenyl-3H-imidazo[4,5-b]pyridin-3-yl)phenyl)azetidine-1-carbonyl)benzoic acid], for which the IC50 in test [1] is under 0.05 µM; in test [2] it was under 0.5 µM.

Consider `COc1cc(CN2CC(c3ccc(-n4c(-c5cccnc5N)nc5ccc(-c6ccccc6)nc54)cc3)C2)ccc1C(=O)O` [Compound 184, 4-((3-(4-(2-(2-aminopyridin-3-yl)-5-phenyl-3H-imidazo[4,5-b]pyridin-3-yl)phenyl)azetidin-1-yl)methyl)-2-methoxybenzoic acid], for which the figures for the IC50 in test [1] and in test [2] were under 0.05 µM and under 0.5 µM, respectively.

Regarding `Nc1ncccc1-c1nc2ccc(OC(F)(F)F)cc2n1-c1ccc(NC(=O)c2ccc(C(=O)O)cc2)nc1` [Compound 175, 4-((5-(2-(2-aminopyridin-3-yl)-6-(trifluoromethoxy)-1H-benzo[d]imidazol-1-yl)pyridin-2-yl)carbamoyl)benzoic acid], the IC50 in test [1] and in test [2] was over 0.5 µM in each case.

Regarding `Nc1ncccc1-c1nc2ccc(-c3ccccc3)nc2n1-c1ccc(C2CCN(Cc3ccc(C(=O)O)cc3)CC2)cc1` [Compound 139, 4-((4-(4-(2-(2-aminopyridin-3-yl)-5-phenyl-3H-imidazo[4,5-b]pyridin-3-yl)phenyl)piperidin-1-yl)methyl)benzoic acid], the IC50 in test [1] is over 0.5 µM; in test [2], under 0.5 µM.

Consider `CC(c1ccc(C(=O)O)cc1)N1CCC(c2ccc(-n3c(-c4cccnc4N)nc4ccc(-c5ccccc5)nc43)cc2)C1` (stereo not shown) [Compound 171, 4-(1-(3-(4-(2-(2-aminopyridin-3-yl)-5-phenyl-3H-imidazo[4,5-b]pyridin-3-yl)phenyl)pyrrolidin-1-yl)ethyl)benzoic acid], for which the IC50 was 0.2 to 0.5 µM in test [1] and under 0.5 µM in test [2].

For the compound `C[C@@H](c1ccc(C(=O)O)cc1)N1CC(c2ccc(-n3c(-c4cccnc4N)nc4ccc(-c5ccccc5)nc43)cc2)C1` (single isomer, unassigned) [Compound 126], the IC50 in test [1] is over 0.5 µM; in test [2] it was under 0.5 µM.

As for `CC(C)Oc1ccc2nc(-c3cccnc3N)n(-c3ccc(NC(=O)c4ccc(C(=O)O)cc4)nc3)c2c1` [Compound 176, 4-[[5-[2-(2-amino-3-pyridyl)-6-isopropoxy-benzimidazol-1-yl]-2-pyridyl]carbamoyl]benzoic acid], the 50% inhibitory concentration (IC50) in test [1] and in test [2] was over 0.5 µM in each case.

Take `Nc1ncccc1-c1nc2ccc(-c3ccccc3)nc2n1-c1ccc(NC(=O)c2cc(F)c(C(=O)O)cc2F)nc1` [Compound 152]: the IC50 in test [1] is 0.05 to 0.2 µM; in test [2] it was under 0.5 µM.

`COc1ccc2nc(-c3cccnc3N)n(-c3ccc(CNC(=O)c4cccc(C(=O)O)c4F)cc3)c2c1` [Compound 103, 3-((4-(2-(2-aminopyridin-3-yl)-6-methoxy-1H-benzo[d]imidazol-1-yl)benzyl)carbamoyl)-2-fluorobenzoic acid]: the IC50 in test [1] and in test [2] was over 0.5 µM in each case.

A word on the IC50: it is the point on the concentration scale where inhibition reaches its midpoint.
